PubChem BioAssay (NCI)
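96-well plates; 48 h exposure; 5 concentrations. Endpoints by linear interpolation between flanking doses. Not reached: highest tested concentration assigned. Definition used: TGI = concentration required for complete inhibition of growth.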

Legend:
Assay in all cases: NCI anticancer screen, dose series, 48 h
ACHN renal = system: ACHN renal
SK-MEL-28 melanoma = system: SK-MEL-28 melanoma
BT-549 breast = system: BT-549 breast
IGROV1 ovarian = system: IGROV1 ovarian
MDA-MB-231 breast = system: MDA-MB-231 breast
SK-MEL-2 melanoma = system: SK-MEL-2 melanoma
SK-MEL-5 melanoma = system: SK-MEL-5 melanoma
CCRF-CEM leukemia = system: CCRF-CEM leukemia
T-47D breast = system: T-47D breast
K-562 leukemia = system: K-562 leukemia

SMILES | TGI (ACHN renal) [µM] | TGI (SK-MEL-28 melanoma) [µM] | TGI (BT-549 breast) [µM] | TGI (IGROV1 ovarian) [µM] | TGI (MDA-MB-231 breast) [µM] | TGI (SK-MEL-2 melanoma) [µM] | TGI (SK-MEL-5 melanoma) [µM] | TGI (CCRF-CEM leukemia) [µM] | TGI (T-47D breast) [µM] | TGI (K-562 leukemia) [µM]
c1ccc2c3c(c(N4CCOCC4)nc2c1)CCCC3 | > 100 | > 100 | > 100 | > 100 | > 100 | > 100 | 54.7 | > 100 | 72.8 | > 100
O=c1c2ccccc2nc(Nc2cccc(Cl)c2)n1/N=C/C=C/c1ccccc1 | > 100 | > 100 | > 100 | > 100 | > 100 | > 100 | > 100 | > 100 | > 100 | > 100
Cc1c2ncccc2cc2oc3ccccc3c(=O)c12 | > 100 | > 100 | > 100 | > 100 | > 100 | > 100 | > 100 | > 100 | 61.7 | > 100
CC1(C)OCC2OC3([C@H]4OC(C)(C)O[C@@H]4CO)OC(C)(C)OC3C2O1 (stereo not given in full) | > 100 | > 100 | > 100 | > 100 | > 100 | > 100 | > 100 | > 100 | > 100 | > 100
O=C(Nc1ccccc1C(=O)NCCCO)/C(=C/c1ccccc1O)NC(=O)c1ccccc1 | 97.4 | > 100 | 55.7 | > 100 | > 59.3 | > 100 | > 100 | > 100 | > 100 | > 100
CC1(C(=O)O)CCCC1C(=O)O (stereo not given) | > 100 | > 100 | > 100 | > 100 | > 100 | > 100 | > 100 | > 100 | > 100 | > 100
NC(=O)c1cc2ccccc2o/c1=N/O | > 100 | > 100 | > 100 | > 100 | > 100 | > 100 | > 100 | > 100 | > 100 | > 100
CCOn1c(C2(CC3CCN(C(=O)c4ccccc4)CC3)OCCO2)cc2ccccc21 | 27.9 | 27.7 | 34.5 | 31.7 | 30 | 32.2 | 24.6 | 31.7 | 56.2 | 38.2
Cn1c([O-])nc(-n2cc[n+](C)c2)cc1=O | > 100 | > 100 | > 100 | > 100 | > 100 | > 100 | > 100 | > 100 | > 100 | > 100
COc1cc(CN2CCCCC2)cc2cc(C(=O)O)c(=O)oc12 | > 100 | > 100 | > 100 | > 100 | > 100 | > 100 | > 100 | > 100 | > 100 | > 100
Cc1cc2[nH]c3c(C#N)c4c(c(=O)n3c2cc1C)CCCC4 | > 100 | > 100 | > 100 | > 100 | > 100 | > 100 | > 100 | > 100 | > 100 | > 100
Brc1ccc2c(-c3csc(-c4c[nH]c5ccc(Br)cc45)n3)c[nH]c2c1 | 11.1 | 25.8 | 27.7 | 16.4 | > 24.6 | 18.8 | 12.8 | > 29.2 | 21.3 | > 22.2
COc1cc2c(/C=C3/C(=O)Nc4ccccc43)c(Cl)[nH]c2cc1C | 17.4 | 29.6 | 17.1 | 1.1 | 4.89 | 25.4 | 1.42 | > 67.8 | 41.1 | 24
CC(=O)OC/C=C(/C=C/CNC1CCCCC1)OC(C)=O | 30.1 | 30.9 | 31.3 | 34.3 | 27.9 | 43.8 | 33.5 | > 100 | 36.7 | 32
COCc1nc2c(OC)cc(-c3nc4ccc(N5CCN(C)CC5)cc4[nH]3)c(OC)c2[nH]1 | > 100 | > 100 | > 100 | > 100 | > 100 | 76.3 | 53.2 | > 100 | > 100 | > 100
Brc1cc2nn(-c3ccccc3)nc2c2nonc12 | > 100 | > 100 | > 100 | > 100 | > 100 | > 100 | > 100 | > 100 | > 100 | > 100
Brc1ccc2c(-c3csc(-c4c[nH]c5cc(Br)ccc45)n3)c[nH]c2c1 | > 100 | > 100 | > 100 | > 75.2 | > 70.6 | > 100 | > 100 | > 64.1 | 98.7 | > 43.8
